Experimental data reported in patent US5478939A, “(R,R) and (S,S) 2,5-diazabicyclo [2,2,1]heptane derivatives” (priority 1994, dated 1995).
Structures can show the parent of a compound that is named as a salt.

Legend:
[1] = target: muscarinic cholinergic receptor (high affinity agonist conformation); assay: [3H]-cis-Methyldioxolane (3H-CD) Binding Assay (High Affinity), cerebral cortex; conditions: 3H-CD 1.0 nM, rat cerebral cortex, 25° C., 120 minutes, pH 7.4; read-out: Ki, ^3 H-CD (ctx)
[2] = target: muscarinic cholinergic receptor; assay: [3H] Quinuclidinyl Benzilate (QNB) Binding Assay, cerebral cortex; conditions: 3H-QNB 0.25 nM, rat cerebral cortex, 25° C., 120 minutes, pH 7.4; read-out: Ki, ^3 H-QNB (ctx)

CC(C)(C)OC(=O)N1C[C@H]2C[C@@H]1CN2c1ncns1 [Example 7]
Ki [1]: > 1000 µM

c1nsc(N2C[C@@H]3C[C@H]2CN3)n1 [Example 15, (S,S)-2-(1,2,4-Thiadiazol-5-yl)-2,5-diazabicyclo[2.2.1]heptane]
Ki [2]: > 1000 µM | Ki [1]: 29.5 µM

Cc1nccnc1N1C[C@@H]2C[C@H]1CN2C [Example 35, (S,S)-2-Methyl-5-(3-methylpyrizin-2-yl)-2,5-diazabicyclo[2.2.1]heptane]
Ki [2]: 6.3 µM | Ki [1]: 1.7 µM

Cc1noc(N2C[C@@H]3C[C@H]2CN3)n1 [Example 17, (S,S)-2-(3-Methyl-1,2,4-oxadiazol-5-yl)-2,5-diazabicyclo[2.2.1]heptane]
Ki [2]: > 1000 µM | Ki [1]: 5.4 µM

c1cnc(N2C[C@H]3C[C@@H]2CN3)cn1 [Example 11, (R,R)-2-(2-Pyrazinyl)-2,5-diazabicyclo[2.2.1]heptane hydrochloride]
Ki [2]: 3.1 µM | Ki [1]: 0.1 µM

Cc1nsc(N2C[C@@H]3C[C@H]2CN3)n1 [Example 13, (S,S)-2-(3-Methyl-1.2,4-thiadiazol-5-yl)-2,5-diazabicyclo[2.2.1]heptane]
Ki [1]: 13 µM

CN1C[C@@H]2C[C@H]1CN2c1ccccc1[N+](=O)[O-] [Example 30, (S,S)-2-Methyl-5-(2-nitrophenyl)-2,5-diazabicyclo[2.2.1]heptane]
Ki [2]: 1.6 µM | Ki [1]: 1.1 µM

Cc1noc(N2C[C@H]3C[C@@H]2CN3)n1 [Example 18, (R,R)-2-(3-Methyl-1,2,4-oxadiazol-5-yl)-2,5-diazabicyclo[2.2.1]heptane]
Ki [2]: 47.2 µM | Ki [1]: 0.4 µM

c1nsc(N2C[C@H]3C[C@@H]2CN3)n1 [Example 16, (R,R)-2-(1,2,4-Thiadiazol-5-yl) -2,5-diazabicyclo[2.2.1]heptane]
Ki [2]: > 1000 µM | Ki [1]: 0.3 µM

CN1C[C@@H]2C[C@H]1CN2c1ccc([N+](=O)[O-])s1 [Example 29, (S,S)-2-Methyl-5-(5-nitro-2-thienyl)-2,5-diazabicyclo[2.2.1]heptane]
Ki [2]: 13.2 µM | Ki [1]: 6.8 µM

Cc1cnc(C)c(N2C[C@@H]3C[C@H]2CN3C)n1 [Example 22, (S,S)-2-(3,6-Dimethylpyrazin-2-yl)-5-methyl-2,5-diazabicyclo[2,2.1]heptane]
Ki [2]: 1.2 µM | Ki [1]: 0.7 µM

Cc1noc(N2C[C@H]3C[C@@H]2CN3C(=O)OC(C)(C)C)n1 [Example 9, (R,R)-2-(tert-Butyloxycarbonyl)-5-(3-methyl-1,2,4-oxadiazol-5-yl)-2,5-diazabicyclo[2.2.1]heptane]
Ki [1]: 18.2 µM

CN1C[C@@H]2C[C@H]1CN2c1sccc1[N+](=O)[O-] [Example 28, (S,S)-2-Methyl-5-(3-nitro-2-thienyl)-2,5-diazabicyclo[2.2.1]heptane]
Ki [2]: > 1000 µM | Ki [1]: 9.8 µM

CN1C[C@@H]2C[C@H]1CN2c1cncc(Cl)n1 [Example 24, (S,S)-2-(6-Chloropyrazin-2-yl)-5-methyl-2.5-diazabicyclo[2.2.1]heptane]
Ki [2]: 4.5 µM | Ki [1]: 2 µM

Cc1nsc(N2C[C@@H]3C[C@H]2CN3C)n1 [Example 26, (S,S)-2-Methyl-5-(3-methyl-1,2,4-thiadiazol-5-yl)-2,5-diazabicyclo[2.2.1]heptane]
Ki [2]: 0.5 µM | Ki [1]: 0.2 µM

CC(C)(C)OC(=O)N1C[C@@H]2C[C@H]1CN2c1ncns1 [Example 8, (S,S)-2-(tert-Butyloxycarbonyl)-5-(1,2,4-thiadiazol-5-yl)-2,5-diazabicyclo[2.2.1]heptane]
Ki [1]: 97 µM

COc1cncc(N2C[C@@H]3C[C@H]2CN3C)n1 [Example 32, (S,S)-2-Methyl-5-(6-methoxypyrazin-2-yl)-2,5-diazabicyclo[2.2.1]heptane]
Ki [2]: 0.4 µM | Ki [1]: 0.3 µM

CN1C[C@H]2C[C@@H]1CN2c1cnccn1 [Example 36, (R,R)-2-Methyl-5-(2-pyrazinyl)-2,5-diazabicyclo[2.2.1]heptane]
Ki [2]: > 1000 µM | Ki [1]: 6.4 µM

c1cnc(N2C[C@@H]3C[C@H]2CN3)cn1 [Example 12, (S,S)-2-(2-Pyrazinyl)-2,5-diazabicyclo[2.2.1]heptane hydrochloride]
Ki [2]: 11.4 µM | Ki [1]: 1.3 µM

Cc1nsc(N2C[C@H]3C[C@@H]2CN3C(=O)OC(C)(C)C)n1 [Example 5]
Ki [2]: > 1000 µM | Ki [1]: 59 µM

CN1C[C@@H]2C[C@H]1CN2c1cnccn1 [Example 19, (S,S)-2-Methyl-5-(2-pyrazinyl)-2,5-diazabicyclo[2.2.1]heptane]
Ki [2]: 5.5 µM | Ki [1]: 0.4 µM

Cc1nsc(N2C[C@H]3C[C@@H]2CN3)n1 [Example 14, (R,R)-2-(3-Methyl-1,2,4-thiadiazol-5-yl)-2,5-diazabicyclo[2.2.1]heptane]
Ki [2]: 24.7 µM | Ki [1]: 0.9 µM

CN1C[C@@H]2C[C@H]1CN2c1nccnc1Cl [Example 23, (S,S)-2-(3-Chloropyrazin-2-yl)-5-methyl-2,5-diazabicyclo[2.2.1]heptane]
Ki [2]: 2.3 µM | Ki [1]: 0.9 µM

CC(C)(C)OC(=O)N1C[C@H]2C[C@@H]1CN2c1cnccn1 [Example 3, (R,R)-2-(tert-Butyloxycarbonyl)-5-(2-pyrazinyl)-2,5-diazabicyclo[2.2.1]heptane]
Ki [1]: > 1000 µM

Cc1noc(N2C[C@@H]3C[C@H]2CN3C(=O)OC(C)(C)C)n1 [Example 10]
Ki [1]: 43.2 µM
